Experimental data: patent US20200131156A1, “ARYLSULFONYLPYROLECARBOXAMIDE DERIVATIVES AS Kv3 POTASSIUM CHANNEL ACTIVATORS” (H. Lundbeck A/S, priority 2018, published 2020)

Target: T1, hKv3.1b (Homo sapiens, UniProt P48547)
T1 construct: expressed in transfected cells
T1 sequence (P48547 1-585 isoform P48547-2): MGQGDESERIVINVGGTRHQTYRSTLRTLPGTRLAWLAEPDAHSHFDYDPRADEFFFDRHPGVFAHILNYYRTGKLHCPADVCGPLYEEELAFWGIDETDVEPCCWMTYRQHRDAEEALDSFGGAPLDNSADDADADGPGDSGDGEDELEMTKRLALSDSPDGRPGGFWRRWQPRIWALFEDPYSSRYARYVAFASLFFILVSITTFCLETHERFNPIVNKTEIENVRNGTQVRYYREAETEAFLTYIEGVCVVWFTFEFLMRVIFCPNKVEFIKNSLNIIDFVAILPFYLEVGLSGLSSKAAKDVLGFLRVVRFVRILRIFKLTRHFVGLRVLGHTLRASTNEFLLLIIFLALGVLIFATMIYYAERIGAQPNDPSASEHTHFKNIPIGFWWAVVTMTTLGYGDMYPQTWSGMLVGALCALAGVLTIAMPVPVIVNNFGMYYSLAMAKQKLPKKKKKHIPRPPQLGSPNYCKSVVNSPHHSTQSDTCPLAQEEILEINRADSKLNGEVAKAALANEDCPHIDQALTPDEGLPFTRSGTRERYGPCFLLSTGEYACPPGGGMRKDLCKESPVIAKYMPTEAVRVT
Assay: Automated patch clamp (QPatch-16x) on HEK-293 cells stably expressing hKv3.1b
Type: cell-based
Conditions: for ECdelta5 mV: concentration needed to shift the activation threshold 5 mV; for Threshold Shift: maximum absolute hyperpolarizing shift of activation threshold at tested concentrations 0.37-30 μM
Experimental: HEK-293 cells stably expressing hKv3.1b were used for the experiments. Cells were cultured in DMEM medium supplemented with 10% Fetal Bovine Serum, 100 ug/mL Geneticidin and 100 u/mL Penicillin/Streptomycin (all from Gibco). Cells were grown to 80-90% confluency at 37° C. and 5% CO2. On the day of the experiment the cells were detached from the tissue culture flasks by Detachin, resuspended in serum free medium containing 25 mM HEPES and transferred to the cell hotel of the QPatch. The cells were used for experiments 0-5 hours after detachment.
Patch-clamp recordings were performed using the automated recording system QPatch-16x (Sophion Bioscience, Denmark). Cells were centrifuged, SFM removed and the cells were resuspended in extracellular buffer containing (in mM): 145 NaCl, 4 KCl, 1 MgCl2, 2 CaCl2, 10 HEPES and 10 glucose (added fresh on the day of experiment); pH 7.4 adjusted with NaOH, 305 mOsm adjusted with sucrose.
Single cell whole-cell recordings were carried out using an intracellular solution containing (in mM): 120 KCl, 32.25/10 KOH/EGTA, 5.374 CaCl2, 1.75 MgCl2, 10 HEPES, 4 Na2ATP (added fresh on the day), pH 7.2 adjusted with KOH, […] adjusted with sucrose. Cell membrane potentials were held at −80 mV and currents were evoked by voltage steps (200 ms duration) from −70 mV to +10 mV (in 10 mV increments). Vehicle (0.33% DMSO) or increasing concentration of compound (I) were applied and the voltage protocol was run 3 times (resulting in 3 min cpd incubation time). Five increasing concentrations of compound (I) were applied to each cell.
Leak subtraction protocol was applied at −33% of the sweep amplitude, and serial resistance values were constantly monitored.
Any cell where serial resistance exceeded 25 MOhm, membrane resistance less than 200 MOhm or current size at −10 mV less than 200 pA was eliminated from the subsequent analysis.
Data analysis was performed using Sophion's QPatch assay software in combination with Microsoft Excel™ (Redmond, Wash., USA). Current voltage relationships were plotted from the peak current at the individual voltage steps normalized to the vehicle addition at 10 mV. The voltage threshold for channel activation was defined as 5% activation of the peak current at 10 mV in presence of vehicle. The activity of the compounds was described as the ability to shift this current voltage relationship to more hyperpolarized potentials and is given as the maximum absolute shift possible at the tested concentrations (0.37, 1.11, 3.33, 10, 30 μM). Concentration response curves were plotted from the threshold shift at the individual concentrations and were fitted excel fit model 205 sigmoidal dose-response model (fit=A+((B−A)/1+((C/x)^D)))), where A is the minimum value, B the maximum value, C the EC50 value and D the slope of the curve. The concentration needed to shift the threshold 5 mV was readout from this curve (ECdelta5 mV).

Cc1ccc(S(=O)(=O)n2ccc(C(=O)NCc3nccs3)c2)cc1 [Compound 51, 1-(4-methylbenzene-1-sulfonyl)-N-[(1,3-thiazol-2-yl)methyl]-1H-pyrrole-3-carboxamide]
ECdelta5 mV: 2400 nM
Threshold Shift: 14 mV

Cc1ccc(S(=O)(=O)n2ccc(C(=O)NCc3ccon3)c2)cc1 [Compound 52, 1-(4-methylbenzene-1-sulfonyl)-N-[(1,2-oxazol-3-yl)methyl]-1H-pyrrole-3-carboxamide]
ECdelta5 mV: 2500 nM
Threshold Shift: 13 mV

Cc1ccc(S(=O)(=O)n2ccc(C(=O)NCc3ccno3)c2)cc1 [Compound 53, 1-(4-methylbenzene-1-sulfonyl)-N-[(1,2-oxazol-5-yl)methyl]-1H-pyrrole-3-carboxamide]
ECdelta5 mV: 2300 nM
Threshold Shift: 15 mV

Cc1ccc(S(=O)(=O)n2ccc(C(=O)NCc3cocn3)c2)cc1 [Compound 54, 1-(4-methylbenzene-1-sulfonyl)-N-[(1,3-oxazol-4-yl)methyl]-1H-pyrrole-3-carboxamide]
ECdelta5 mV: 2000 nM
Threshold Shift: 15 mV

Cc1ccc(S(=O)(=O)n2ccc(C(=O)NCc3cnsc3)c2)cc1 [Compound 55, 1-(4-methylbenzene-1-sulfonyl)-N-[(1,2-thiazol-4-yl)methyl]-1H-pyrrole-3-carboxamide]
ECdelta5 mV: 1500 nM
Threshold Shift: 15 mV

Cc1ccc(S(=O)(=O)n2ccc(C(=O)NCc3nncs3)c2)cc1 [Compound 56, 1-(4-methylbenzene-1-sulfonyl)-N-[(1,3,4-thiadiazol-2-yl)methyl]-1H-pyrrole-3-carboxamide]
ECdelta5 mV: 6800 nM
Threshold Shift: 14 mV

Cc1ccc(S(=O)(=O)n2ccc(C(=O)NCc3ncon3)c2)cc1 [Compound 57, 1-(4-methylbenzene-1-sulfonyl)-N-[(1,2,4-oxadiazol-3-yl)methyl]-1H-pyrrole-3-carboxamide]
ECdelta5 mV: 3600 nM
Threshold Shift: 14 mV

Cc1ccc(S(=O)(=O)n2ccc(C(=O)NCc3cncnc3)c2)cc1 [Compound 58, 1-(4-methylbenzene-1-sulfonyl)-N-[(pyrimidin-5-yl)methyl]-1H-pyrrole-3-carboxamide]
ECdelta5 mV: 2200 nM
Threshold Shift: 22 mV

O=C(NCc1cnccn1)c1ccn(S(=O)(=O)c2ccccc2F)c1 [Compound 59, 1-(2-fluorobenzene-1-sulfonyl)-N-[(pyrazin-2-yl)methyl]-1H-pyrrole-3-carboxamide]
ECdelta5 mV: 2000 nM
Threshold Shift: 14 mV

Cc1cccc(S(=O)(=O)n2ccc(C(=O)NCc3ccn(C)n3)c2)c1 [Compound 60, 1-(3-methylbenzene-1-sulfonyl)-N-[(1-methyl-1H-pyrazol-3-yl)methyl]-1H-pyrrole-3-carboxamide]
ECdelta5 mV: 2200 nM
Threshold Shift: 16 mV

Cc1cccc(S(=O)(=O)n2ccc(C(=O)NCc3nc(C)no3)c2)c1 [Compound 61, 1-(3-methylbenzene-1-sulfonyl)-N-[(3-methyl-1,2,4-oxadiazol-5-yl)methyl]-1H-pyrrole-3-carboxamide]
ECdelta5 mV: 5900 nM
Threshold Shift: 12 mV

Cc1cnc(CNC(=O)c2ccn(S(=O)(=O)c3cccc(C)c3)c2)nc1 [Compound 62, 1-(3-methylbenzene-1-sulfonyl)-N-[(5-methylpyrimidin-2-yl)methyl]-1H-pyrrole-3-carboxamide]
ECdelta5 mV: 4900 nM
Threshold Shift: 12 mV

Cn1ccc(CNC(=O)c2ccn(S(=O)(=O)c3ccc(F)cc3)c2)n1 [Compound 63, 1-(4-fluorobenzene-1-sulfonyl)-N-[(1-methyl-1H-pyrazol-3-yl)methyl]-1H-pyrrole-3-carboxamide]
ECdelta5 mV: 2200 nM
Threshold Shift: 13 mV

O=C(NCc1cnccn1)c1ccn(S(=O)(=O)c2ccc(F)cc2)c1 [Compound 64, 1-(4-fluorobenzene-1-sulfonyl)-N-[(pyrazin-2-yl)methyl]-1H-pyrrole-3-carboxamide]
ECdelta5 mV: 4400 nM
Threshold Shift: 13 mV

Cc1noc(CNC(=O)c2ccn(S(=O)(=O)c3ccc(F)cc3)c2)n1 [Compound 65, 1-(4-fluorobenzene-1-sulfonyl)-N-[(3-methyl-1,2,4-oxadiazol-5-yl)methyl]-1H-pyrrole-3-carboxamide]
ECdelta5 mV: 4200 nM
Threshold Shift: 14 mV

COc1ccc(S(=O)(=O)n2ccc(C(=O)NCc3ccn(C)n3)c2)cc1 [Compound 66, 1-(4-methoxybenzene-1-sulfonyl)-N-[(1-methyl-1H-pyrazol-3-yl)methyl]-1H-pyrrole-3-carboxamide]
ECdelta5 mV: 1400 nM
Threshold Shift: 18 mV

COc1ccc(S(=O)(=O)n2ccc(C(=O)NCc3cnccn3)c2)cc1 [Compound 67, 1-(4-methoxybenzene-1-sulfonyl)-N-[(pyrazin-2-yl)methyl]-1H-pyrrole-3-carboxamide]
ECdelta5 mV: 2200 nM
Threshold Shift: 23 mV

COc1ccc(S(=O)(=O)n2ccc(C(=O)NCc3nc(C)no3)c2)cc1 [Compound 68, 1-(4-methoxybenzene-1-sulfonyl)-N-[(3-methyl-1,2,4-oxadiazol-5-yl)methyl]-1H-pyrrole-3-carboxamide]
ECdelta5 mV: 2300 nM
Threshold Shift: 21 mV

COc1ccc(S(=O)(=O)n2ccc(C(=O)NCc3cnn(C)c3)c2)cc1 [Compound 69, 1-(4-methoxybenzene-1-sulfonyl)-N-[(1-methyl-1H-pyrazol-4-yl)methyl]-1H-pyrrole-3-carboxamide]
ECdelta5 mV: 3000 nM
Threshold Shift: 18 mV

COc1ccc(S(=O)(=O)n2ccc(C(=O)NCc3ccc(C)cn3)c2)cc1 [Compound 70, 1-(4-methoxybenzene-1-sulfonyl)-N-[(5-methylpyridin-2-yl)methyl]-1H-pyrrole-3-carboxamide]
ECdelta5 mV: 1100 nM
Threshold Shift: 17 mV

COc1ccc(S(=O)(=O)n2ccc(C(=O)NCc3cc(C)no3)c2)cc1 [Compound 71, 1-(4-methoxybenzene-1-sulfonyl)-N-[(3-methyl-1,2-oxazol-5-yl)methyl]-1H-pyrrole-3-carboxamide]
ECdelta5 mV: 1800 nM
Threshold Shift: 19 mV

COc1ccc(S(=O)(=O)n2ccc(C(=O)NCc3ncc(C)cn3)c2)cc1 [Compound 72, 1-(4-methoxybenzene-1-sulfonyl)-N-[(5-methylpyrimidin-2-yl)methyl]-1H-pyrrole-3-carboxamide]
ECdelta5 mV: 2800 nM
Threshold Shift: 20 mV

COc1ccc(S(=O)(=O)n2ccc(C(=O)NCc3ncc(C)o3)c2)cc1 [Compound 73, 1-(4-methoxybenzene-1-sulfonyl)-N-[(5-methyl-1,3-oxazol-2-yl)methyl]-1H-pyrrole-3-carboxamide]
ECdelta5 mV: 2100 nM
Threshold Shift: 13 mV

Cc1ccccc1S(=O)(=O)n1ccc(C(=O)NCc2ccn(C)n2)c1 [Compound 74, 1-(2-methylbenzene-1-sulfonyl)-N-[(1-methyl-1H-pyrazol-3-yl)methyl]-1H-pyrrole-3-carboxamide]
ECdelta5 mV: 2100 nM
Threshold Shift: 21 mV

Cc1noc(CNC(=O)c2ccn(S(=O)(=O)c3ccccc3C)c2)n1 [Compound 75, 1-(2-methylbenzene-1-sulfonyl)-N-[(3-methyl-1,2,4-oxadiazol-5-yl)methyl]-1H-pyrrole-3-carboxamide]
ECdelta5 mV: 3200 nM
Threshold Shift: 14 mV
